{
  "source": "patent US6436946B1",
  "about": "“Xanthine-containing compositions for oral administration and uses related thereto” (priority 1997, dated 2002)",
  "key": {"[1]": {"system": "subjects", "test": "Standard short-term memory test (repeat series of numbers backward)", "format": "in vivo, human", "settings": "three of the five subjects, 30 minutes after ingestion", "experimental": "The test consisted of an examiner reading a series of numbers to the subject and the subject subsequently being asked to repeat said numbers backward. In all cases, the test was initiated 30 minutes after ingestion of the composition."}, "[2]": {"system": "subjects", "test": "Stimulant effect: score in video game of skill (Pilot Wing)", "format": "in vivo, human", "settings": "five subjects, crossover with placebo, 180 mg caffeine, Formulation I", "experimental": "Five subjects were tested over a period of three days. […] Both prior to and after consuming the composition, each subject played a video game of skill called Pilot Wing™ made by Nintendo™."}},
  "data": [
    {"smiles": "Cn1c(=O)c2c(ncn2C)n(C)c1=O", "note": "[caffeine]", "values": [
      {"measurement": "digits repeated backwards without error", "setting": "[1]", "result": "could not repeat this accomplishment"},
      {"measurement": "video game score after consuming the composition", "setting": "[2]", "result": "higher scores after consuming the caffeine, compared to consuming the placebo"}
    ]}
  ]
}
